Measured values as given in publication PMC5706701, “Development of a homogenous high-throughput assay for inositol hexakisphosphate kinase 1 activity” (PLoS ONE, 2017).
Where a name gives a salt, the structure may show the parent alone.

Target: T1, Human IP6K1 (Homo sapiens, UniProt Q92551)
T1 construct: GST (N, cleaved yes); made in house; host or cells: C43 E. coli, pGEX-6P-2
Assay: IP6K1 high-throughput screen of the Sigma LOPAC (ADP-Glo Max, single point);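 note: final compound concentration 10µM in 5% DMSO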
Format: biochemical

[1] = LOPAC single-point screen, ADP-Glo Max raw signal per well
[2] = LOPAC single-point screen, Z-score from raw signal with plate average and StDev
[3] = LOPAC single-point screen, ADP-Glo Max luminescence raw signal per well
[4] = LOPAC single-point screen, Z-score relative to plate average and StDev
[5] = LOPAC single-point screen, Z-score against plate average and StDev
[6] = Sigma LOPAC single-point screen, ADP-Glo Max raw signal per well
[7] = Sigma LOPAC single-point screen, Z-score from plate average and StDev

T1 sequence (Q92551 whole entry): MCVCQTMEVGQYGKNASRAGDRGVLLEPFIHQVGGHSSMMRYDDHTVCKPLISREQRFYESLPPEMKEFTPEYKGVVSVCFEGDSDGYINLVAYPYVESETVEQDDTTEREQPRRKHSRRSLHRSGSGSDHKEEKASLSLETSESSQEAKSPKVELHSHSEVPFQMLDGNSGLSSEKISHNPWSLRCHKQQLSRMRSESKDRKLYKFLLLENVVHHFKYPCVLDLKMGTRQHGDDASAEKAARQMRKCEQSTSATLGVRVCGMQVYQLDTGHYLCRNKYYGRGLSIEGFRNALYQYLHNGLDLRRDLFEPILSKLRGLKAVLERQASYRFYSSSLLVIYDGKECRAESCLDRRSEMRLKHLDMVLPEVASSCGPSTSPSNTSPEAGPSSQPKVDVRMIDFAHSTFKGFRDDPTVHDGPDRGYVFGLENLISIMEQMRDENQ

With `COC(=O)c1cc2c(cn1)[nH]c1ccccc12` [Methyl beta-carboline-3-carboxylate] the “Raw Signal” value [1] was 53830 and the Z-score [2] was -0.2715.

In the case of `CN1CCN(c2ccc3ccccc3n2)CC1.O=C(O)/C=C\C(=O)O.O=C(O)/C=C\C(=O)O` [Quipazine, N-methyl-, dimaleate], the “Raw Signal” value [3] was 51627 and the Z-score [4] was -0.8542.

With `CN1CCN(C(=O)OC2c3nccnc3C(=O)N2c2ccc(Cl)cn2)CC1` (stereo not shown) [Zopiclone] the “Raw Signal” value [1] was 56506 and the Z-score [5] was 0.09368.

In the case of `CC[C@@H](CO)NC(=O)[C@@H]1C=C2c3cccc4c3c(cn4C)C[C@H]2N(C)C1` [Methysergide maleate], the “Raw Signal” value [1] was 55881 and the Z-score [5] was 0.2499.

With `COc1cc(CCN)ccc1O.Cl` the “Raw Signal” value [1] was 53513 and the Z-score [2] was -0.1479.

For `CC(C)(C)NCC(O)c1cc(O)cc(O)c1.CC(C)(C)NCC(O)c1cc(O)cc(O)c1.O=S(=O)(O)O` (stereo not shown) [Terbutaline hemisulfate], the “Raw Signal” value [6] was 59192 and the Z-score [7] was 0.6155.

In the case of `O=C(O)C1=CCCNC1` [Guvacine hydrochloride], the “Raw Signal” value [1] was 56288 and the Z-score [5] was 0.2277.

In the case of `Cl.O=C(O)C1=CCCN(CCON=C(c2ccccc2)c2ccccc2)C1` [NO-711 hydrochloride], the “Raw Signal” value [6] was 58704 and the Z-score [7] was 0.7243.

For `O=C(O)/C=C/c1ccc(O)c(O)c1` [Caffeic Acid], the “Raw Signal” value [1] was 56687 and the Z-score [2] was -0.216.

In the case of `COc1cc(CC(C)N)c(OC)cc1I.Cl` (racemic) [(±)-DOI hydrochloride], the “Raw Signal” value [3] was 52125 and the Z-score [4] was -0.6178.

In the case of `C[N+](C)(C)CCC(=O)c1cccc2ccccc12.[I-]`, the “Raw Signal” value [1] was 55064 and the Z-score [5] was 0.1127.

With `O=C(CCCN1CCC2(CC1)C(=O)NCN2c1ccccc1)c1ccc(F)cc1` [Spiperone hydrochloride] the “Raw Signal” value [3] was 52620 and the Z-score [4] was -0.6613.

`O=C1NC(c2cccc([N+](=O)[O-])c2)=CCN1c1ccccc1O` [Icilin] was tested, and the “Raw Signal” value [3] was 49844 and the Z-score [4] was -1.081.

`CC(C)C[C@H]1C(=O)N2CCC[C@H]2[C@]2(O)O[C@](NC(=O)[C@@H]3C=C4c5cccc6[nH]c(Br)c(c56)C[C@H]4N(C)C3)(C(C)C)C(=O)N12.CS(=O)(=O)O` [(+)-Bromocriptine methanesulfonate] was tested, and the “Raw Signal” value [1] was 59214 and the Z-score [5] was 0.2291.

For `CCn1cc(C(=O)O)c(=O)c2cc3c(cc21)OCO3` [Oxolinic acid], the “Raw Signal” value [6] was 60270 and the Z-score [7] was 0.9874.

For `O=C(O)CCCCC1CCSS1` (racemic) [(±)-alpha-Lipoic Acid], the “Raw Signal” value [6] was 59328 and the Z-score [7] was 0.6419.

`C[C@]12CC[C@@H](O)C[C@@H]1CC[C@@H]1[C@@H]2CC[C@]2(C)[C@@H](C(=O)CO)CC[C@@H]12` was tested, and the “Raw Signal” value [1] was 54259 and the Z-score [5] was -0.0226.

In the case of `C[N+](C)(C)CCOC(N)=O` [Carbachol], the “Raw Signal” value [6] was 62361 and the Z-score [7] was 0.7834.

In the case of `O=C(c1cc(O)c(O)c([N+](=O)[O-])c1)c1ccccc1F` [Ro 41-0960], the “Raw Signal” value [6] was 58523 and the Z-score [7] was 0.4855.

For `N[C@@H](Cc1ccc(O)c(I)c1)C(=O)O` [3-Iodo-L-tyrosine], the “Raw Signal” value [3] was 50230 and the Z-score [4] was -0.6996.

For `Nc1c[n+](N2CCOCC2)no1.[Cl-]` [3-Morpholinosydnonimine hydrochloride], the “Raw Signal” value [1] was 53200 and the Z-score [2] was -0.2005.

`CC(C)(Oc1ccc(C2CC2(Cl)Cl)cc1)C(=O)O` (stereo not shown) [Ciprofibrate] was tested, and the “Raw Signal” value [6] was 63809 and the Z-score [7] was 1.038.

`C#CCOC(=O)C1=CCCN(C)C1` [Arecaidine propargyl ester hydrobromide] was tested, and the “Raw Signal” value [1] was 56259 and the Z-score [2] was -0.2913.

With `N#CC(C#N)=Cc1cc(O)c(O)c(O)c1` [Tyrphostin 25] the “Raw Signal” value [3] was 46819 and the Z-score [4] was -1.788.

For `Cl.NCC(O)c1ccc(O)cc1` (racemic) [(±)-Octopamine hydrochloride], the “Raw Signal” value [1] was 52629 and the Z-score [2] was -0.2965.

With `CCN1C[C@]2(C)CC[C@H](O)[C@]34C1[C@@H](C[C@H]23)[C@@]1(O)C[C@H](OC)[C@H]2C[C@@H]4[C@@H]1[C@H]2O` [Karakoline] the “Raw Signal” value [1] was 53043 and the Z-score [2] was -0.2269.

For `COc1ccccc1N1CCN(CCN(C(=O)c2ccc(F)cc2)c2ccccn2)CC1.Cl.Cl` [p-MPPF dihydrochloride], the “Raw Signal” value [1] was 52235 and the Z-score [2] was -0.3627.

`Cc1ccc(S(=O)(=O)N[C@@H](CCCCN)C(=O)CCl)cc1.Cl` was tested, and the “Raw Signal” value [3] was 53467 and the Z-score [4] was -0.4967.

For `CCOC(=O)C1=C(C)NC(C)=C(C(=O)OC)C1c1cccc(Cl)c1Cl` (stereo not shown) [Felodipine], the “Raw Signal” value [3] was 52611 and the Z-score [4] was -0.5191.

For `Cl.NCC#Cc1ccccc1` [3-Phenylpropargylamine hydrochloride], the “Raw Signal” value [3] was 53264 and the Z-score [4] was -0.5362.

In the case of `CC(C)C[C@H](N)CSSC[C@@H](N)CC(C)C.Cl.Cl` [L-Leucinethiol, oxidized dihydrochloride], the “Raw Signal” value [1] was 55535 and the Z-score [5] was 0.1918.

With `C=C/C(C)=C/[C@@]1(C)SC(=O)C(C)=C1O` [Thiolactomycin] the “Raw Signal” value [1] was 51778 and the Z-score [2] was -0.4395.

`C[C@@H]1OC[C@H](C[N+](C)(C)C)O1.[I-]` [(+)-cis-Dioxolane iodide] was tested, and the “Raw Signal” value [1] was 55108 and the Z-score [5] was -0.01199.

For `c1ccc(C2CC2)c(OCC2=NCCN2)c1` [Cirazoline hydrochloride], the “Raw Signal” value [3] was 48676 and the Z-score [4] was -1.318.

With `C[N+]1(C)[C@@H]2CC[C@H]1C[C@@H](OC(=O)C(CO)c1ccccc1)C2` (stereo partly shown) [Atropine methyl bromide] the “Raw Signal” value [3] was 52228 and the Z-score [4] was -1.0013.

For `CCCCCCCCCC[Si](C)(C)CCC(=O)NC(Cc1ccc(C)cc1)c1ccccc1` (stereo not shown) [Sandoz 58-035], the “Raw Signal” value [1] was 56427 and the Z-score [2] was -0.2617.

For `C[C@H](O)[C@H](O)[C@H]1CNc2nc(N)[nH]c(=O)c2N1.Cl`, the “Raw Signal” value [1] was 53766 and the Z-score [2] was -0.4386.

For `NCCCCN` [Putrescine dihydrochloride], the “Raw Signal” value [1] was 56490 and the Z-score [5] was 0.09057.

`NCCCP(=O)(O)O` [3-Aminopropylphosphonic acid] was tested, and the “Raw Signal” value [1] was 56234 and the Z-score [2] was -0.2957.

With `O=C1c2c(O)ccc(O)c2C(=O)c2c(NCCNCCO)ccc(NCCNCCO)c21` [Mitoxantrone] the “Raw Signal” value [3] was 48302 and the Z-score [4] was -1.024.

`COC(=O)Nc1nc2ccc(C(=O)c3cccs3)cc2[nH]1` [Nocodazole] was tested, and the “Raw Signal” value [6] was 59128 and the Z-score [7] was 0.7955.

With `CC1=C(CC(=O)O)c2cc(F)ccc2/C1=C\c1ccc(S(C)(=O)=O)cc1` [Sulindac sulfone] the “Raw Signal” value [1] was 56423 and the Z-score [5] was 0.07756.

With `CN1CCN(c2nc3cc(C(F)(F)F)ccc3n3cccc23)CC1.O=C(O)/C=C\C(=O)O` [CGS-12066A maleate] the “Raw Signal” value [6] was 58347 and the Z-score [7] was 0.6458.

`N#C/C(=C\c1c[nH]c2ccccc12)C(=O)c1ccc(O)c(O)c1` [Tyrphostin AG 808] was tested, and the “Raw Signal” value [1] was 55945 and the Z-score [5] was -0.01531.

In the case of `O=NN(CCCl)C(=O)NCCCl` [Carmustine], the “Raw Signal” value [3] was 54247 and the Z-score [4] was -0.6457.

For `CCOC(=O)c1ncn2c1[C@@H]1CCCN1C(=O)c1cc(OC)ccc1-2` [L-655,708], the “Raw Signal” value [1] was 54093 and the Z-score [5] was -0.05049.

`N#C/C(=C\c1ccc(O)c(O)c1)C(=O)NCCCNC(=O)/C(C#N)=C/c1ccc(O)c(O)c1` [Tyrphostin AG 537] was tested, and the “Raw Signal” value [3] was 33325 and the Z-score [4] was -4.41.

For `O=Nc1ccc2oc(=O)ccc2c1` [6-Nitroso-1,2-benzopyrone], the “Raw Signal” value [6] was 57563 and the Z-score [7] was 0.5326.

In the case of `C[N+](C)(C)CC(=O)O` [Betaine hydrochloride], the “Raw Signal” value [6] was 62144 and the Z-score [7] was 0.7452.

With `N=C(N)NCCC[C@H](N)C(=O)O` [L-Arginine] the “Raw Signal” value [1] was 58902 and the Z-score [5] was 0.1742.

In the case of `Cl.OC1CCCCC1N1CCC(c2ccccc2)CC1` (racemic) [(±)-Vesamicol hydrochloride], the “Raw Signal” value [3] was 53363 and the Z-score [4] was -0.5169.

For `CNCCC=C1c2ccccc2CCc2ccccc21` [Nortriptyline hydrochloride], the “Raw Signal” value [1] was 54505 and the Z-score [5] was 0.01873.

`CN1[C@@H]2CC[C@H]1C[C@@H](OC(=O)c1cc(Cl)cc(Cl)c1)C2` [3-Tropanyl-3,5-dichlorobenzoate] was tested, and the “Raw Signal” value [1] was 53877 and the Z-score [2] was -0.4171.

`COc1cccc(-c2cc(=O)c3ccccc3o2)c1N` [PD 98,059] was tested, and the “Raw Signal” value [1] was 54412 and the Z-score [2] was -0.3131.

In the case of `NCCCCCC(=O)O` [6-Aminohexanoic acid], the “Raw Signal” value [3] was 70191 and the Z-score (LOPAC single-point screen, Z-score from plate average and StDev) was 2.162.

`NCC(CP(=O)(O)O)c1ccc(Cl)cc1` (stereo not shown) [Phaclofen] was tested, and the “Raw Signal” value [6] was 61057 and the Z-score [7] was 0.9779.

For `C#CCN[C@H](C)Cc1ccccc1.Cl` [R-(-)-Desmethyldeprenyl hydrochloride], the “Raw Signal” value [3] was 52026 and the Z-score [4] was -0.6379.

In the case of `C=C[C@H]1C[N@@]2CC[C@H]1C[C@@H]2[C@@H](O)c1ccnc2ccc(OC)cc12` [Quinidine sulfate], the “Raw Signal” value [1] was 56373 and the Z-score [5] was 0.06784.

With `COc1cc(C=C(C#N)C#N)cc(O)c1O` [Tyrphostin AG 34] the “Raw Signal” value [1] was 55934 and the Z-score [5] was -0.01745.

For `CCC(=O)N1CCN(C(=O)c2ccccc2)CC1` [DM 235], the “Raw Signal” value [1] was 55630 and the Z-score [5] was 0.09402.

`CCCCNc1cc(C(=O)O)cc(S(N)(=O)=O)c1Oc1ccccc1` [Bumetanide] was tested, and the “Raw Signal” value [6] was 62300 and the Z-score [7] was 0.7727.

In the case of `Cl.NCCc1ccc(S(=O)(=O)F)cc1`, the “Raw Signal” value [1] was 58918 and the Z-score [5] was 0.177.

In the case of `CN1CCN(C2=Nc3ccccc3Oc3ccc(Cl)cc32)CC1` [Loxapine succinate], the “Raw Signal” value [1] was 54983 and the Z-score [5] was 0.09905.

`O=C1NCN(c2ccccc2)C12CCN(CC1COc3ccccc3O1)CC2` (stereo not shown) [Spiroxatrine] was tested, and the “Raw Signal” value [1] was 55965 and the Z-score [5] was -0.01142.

For `N.N.O=C([O-])C1(C(=O)[O-])CCC1.[Pt+2]` [Carboplatin], the “Raw Signal” value [3] was 53949 and the Z-score [4] was -0.6982.
